In publication PMC9681820, “A PDE10A inhibitor CPL500036 is a novel agent modulating striatal function devoid of most neuroleptic side-effects” (Frontiers in Pharmacology, 2022):
Like-named read-outs stand apart in the source and are kept apart here.

How the values were obtained:
[1] = tested on: psychosis animal models; parameters: method as in manuscript in preparation; conditions: ref manuscript in preparation; cited from earlier work
[2] = tested on: Salmonella typhimurium TA1535; conditions: CPL500036 5000µg/plate, n=3
[3] = target: T1, M2 muscarinic (human) receptor (Homo sapiens, UniProt P08172); assay: M2 functional assay, intracellular cAMP (HTRF) in CHO cells, agonist and antagonist mode; type: cell-based
T1 construct: host or cells: CHO-K1
T1 sequence (P08172 whole entry): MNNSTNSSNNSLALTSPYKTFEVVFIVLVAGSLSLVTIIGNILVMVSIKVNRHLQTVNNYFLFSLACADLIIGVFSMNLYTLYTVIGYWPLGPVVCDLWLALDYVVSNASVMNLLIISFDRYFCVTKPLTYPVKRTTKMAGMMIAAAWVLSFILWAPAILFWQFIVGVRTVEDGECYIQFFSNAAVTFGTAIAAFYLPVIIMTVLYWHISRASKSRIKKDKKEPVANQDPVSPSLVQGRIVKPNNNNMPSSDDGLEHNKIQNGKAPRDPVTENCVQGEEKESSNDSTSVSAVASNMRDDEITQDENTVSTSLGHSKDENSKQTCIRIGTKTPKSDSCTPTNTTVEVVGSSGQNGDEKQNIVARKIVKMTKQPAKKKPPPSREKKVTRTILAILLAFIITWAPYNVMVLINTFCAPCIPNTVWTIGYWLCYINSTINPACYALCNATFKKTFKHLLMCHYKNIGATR
Experimental: (§1) Binding of CPL500036 was calculated as the percent binding inhibition of a radioactively labeled ligand specific for each target. Enzyme inhibition of CPL500036 was calculated as the percent inhibition of the activity of the control enzyme. “No interaction” was denoted if inhibition ≤ 25% of specific binding of the control. Determination of muscarinic acetylcholine receptor (M2) activity induced by CPL500036 (antagonism and agonism) was undertaken in human recombinant CHO cells by measurement of the intracellular cAMP level according to the service-provider’s protocol. IC50 (concentration causing a half-maximal inhibition of specific binding of the control) or EC50 (concentration causing a half-maximal response of specific binding of the control) and the Hill coefficient were determined by non-linear regression analysis of the competition curves generated with mean replicate values using Hill-equation curve fitting with software developed at Cerep (Celle-Lévescault, France).
Supplementary fig. 1 Assesment of possible allosteric modulation in M2 muscarinic (human) receptor […]
by CPL500036 in CHO cells.
The study was perfomed by Eurofins Cerep (Poitiers, France) according to the service-provider’s protocol. […] Cells were treated for 10 min with CPL500036. cAMP was detected by use of HTRF ( Homogeneous Time Resolved […]

[4] = tested on: Escherichia coli WP2 uvrA; assay: Ames test; conditions: CPL500036 5000µg/plate, n=3
[5] = target: T2, muscarinic acetylcholine receptor type 2 (Homo sapiens, UniProt P08172); assay: SafetyScreen44 radioligand binding (antagonistic radioligand assay); conditions: read-out: % Inh (% inhibition of control specific binding)
T2 construct: purchased Eurofins Cerep (SafetyScreen44)
T2 sequence (P08172 whole entry): as above
Experimental: (§2) The SafetyScreen44® assay was carried out by Eurofins (Poitiers, France) according to the service-provider’s protocol. CPL500036 (1 µM) was tested against a panel of […] potential off-targets proteins, including G protein-coupled receptors (GPCRs), transporters, ion channels, nuclear receptors kinases and other non-kinase enzymes, by use of a set of the binding assays.
as §1

[6] = tested on: human; conditions: ref Janowska et al., 2019, manuscript in preparation; cited from earlier work
[7] = tested on: Wistar Han rats; assay: Glucose tolerance test; type: in vivo; conditions: 0.3 mg/kg, 1 mg/kg, and 3 mg/kg, p.o., 2 h before glucose bolus, n = 8
Experimental: Thirty-two male Wistar Han rats (∼10 weeks; Tri-City Academic Laboratory Animal Centre-Research and Services Centre, Medical University of Gdansk) were fasted for 16 h before experimentation. Animals underwent gavage with CPL500036 (0.3 mg/kg, 1 mg/kg or 3 mg/kg) or vehicle 2 h before receiving a glucose bolus (2 g/kg, i.p.; MilliporeSigma). Olanzapine (10 mg/kg) was used as an active comparator and delivered (s.c.) 30 min before the glucose bolus. Blood samples from the tail vein were collected from each rat right before drug administration, just before glucose loading as well as 15 min, 30 min, 60 min, 120 min, and 180 min after glucose administration. The glucose concentration was measured using a glucometer (Accu-ChekGo, Roche Diagnostics, Mannheim, Germany).

[8] = tested on: unilateral rat model of Parkinson’s disease; parameters: method as in Lenda et al., 2021; conditions: Parkinson’s disease animal model; ref Lenda et al., 2021; cited from earlier work
[9] = tested on: N-Methyl-D-aspartic acid receptor; assay: SafetyScreen44 radioligand binding; parameters: species or system rat; conditions: 1 μM
Experimental: as §2, §1

[10] = tested on: calcium channel, voltage-dependent, L type; assay: SafetyScreen44 radioligand binding; parameters: species or system rat; conditions: 1 μM
Experimental: as §2, §1

[11] = tested on: α-dendrotoxin sensitive potassium channel; assay: SafetyScreen44 radioligand binding; parameters: species or system rat; conditions: 1 μM
Experimental: as §2, §1

[12] = tested on: benzodiazepine receptor (GABAA); assay: SafetyScreen44 radioligand binding; parameters: species or system rat; conditions: 1 μM; agonist radioligand
Experimental: as §2, §1

[13] = tested on: voltage-gated sodium channels site 2; assay: SafetyScreen44 radioligand binding; parameters: species or system rat; conditions: 1 μM
Experimental: as §2, §1

[14] = target: T3, histamine receptor type 2 (Homo sapiens, UniProt P25021); assay: SafetyScreen44 radioligand binding; conditions: read-out: % Inh (% inhibition of control specific binding)
T3 construct: purchased Eurofins Cerep (SafetyScreen44)
T3 sequence (P25021 whole entry): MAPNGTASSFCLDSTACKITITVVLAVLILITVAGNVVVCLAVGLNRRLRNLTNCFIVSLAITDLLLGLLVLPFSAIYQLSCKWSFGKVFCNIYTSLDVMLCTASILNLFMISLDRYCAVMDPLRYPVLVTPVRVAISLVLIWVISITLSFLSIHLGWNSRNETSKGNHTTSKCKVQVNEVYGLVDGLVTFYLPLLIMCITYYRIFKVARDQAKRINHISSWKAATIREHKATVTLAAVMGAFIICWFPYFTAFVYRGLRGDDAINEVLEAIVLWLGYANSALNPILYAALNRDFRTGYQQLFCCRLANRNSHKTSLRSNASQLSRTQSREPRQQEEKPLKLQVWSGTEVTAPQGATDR
Experimental: as §2, §1

[15] = target: T4, androgen receptor (Homo sapiens, UniProt P10275, T878A); assay: SafetyScreen44 radioligand binding; conditions: agonist radioligand, read-out: % Inh (% inhibition of control specific binding)
T4 construct: purchased Eurofins Cerep (SafetyScreen44)
T4 sequence (P10275 whole entry T878A): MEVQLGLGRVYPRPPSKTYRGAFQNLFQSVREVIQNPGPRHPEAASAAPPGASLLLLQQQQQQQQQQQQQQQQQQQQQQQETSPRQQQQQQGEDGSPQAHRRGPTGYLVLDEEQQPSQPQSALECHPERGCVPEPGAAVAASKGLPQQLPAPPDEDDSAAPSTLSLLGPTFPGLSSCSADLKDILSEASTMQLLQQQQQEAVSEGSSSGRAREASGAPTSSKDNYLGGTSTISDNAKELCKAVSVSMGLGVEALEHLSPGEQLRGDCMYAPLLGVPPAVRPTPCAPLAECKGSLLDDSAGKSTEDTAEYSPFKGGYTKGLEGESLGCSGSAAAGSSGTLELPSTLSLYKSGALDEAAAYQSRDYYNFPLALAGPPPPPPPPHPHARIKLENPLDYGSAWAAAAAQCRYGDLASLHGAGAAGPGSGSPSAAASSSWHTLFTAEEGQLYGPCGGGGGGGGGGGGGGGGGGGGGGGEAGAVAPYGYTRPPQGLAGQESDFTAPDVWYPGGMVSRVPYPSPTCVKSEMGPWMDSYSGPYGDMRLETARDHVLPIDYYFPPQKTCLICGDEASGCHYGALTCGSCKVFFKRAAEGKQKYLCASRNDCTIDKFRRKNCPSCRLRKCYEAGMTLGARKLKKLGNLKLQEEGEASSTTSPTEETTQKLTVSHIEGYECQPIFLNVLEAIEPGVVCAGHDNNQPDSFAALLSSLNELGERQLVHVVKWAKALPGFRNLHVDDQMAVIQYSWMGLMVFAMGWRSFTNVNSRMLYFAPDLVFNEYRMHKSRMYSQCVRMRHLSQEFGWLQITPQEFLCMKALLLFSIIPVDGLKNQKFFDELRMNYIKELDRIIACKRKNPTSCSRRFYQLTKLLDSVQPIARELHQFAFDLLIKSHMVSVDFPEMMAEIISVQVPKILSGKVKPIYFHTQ
Experimental: as §2, §1

[16] = target: T5, alpha-1A adrenergic receptor (Homo sapiens, UniProt P35348); assay: SafetyScreen44 radioligand binding; conditions: read-out: % Inh (% inhibition of control specific binding)
T5 construct: purchased Eurofins Cerep (SafetyScreen44)
T5 sequence (P35348 whole entry): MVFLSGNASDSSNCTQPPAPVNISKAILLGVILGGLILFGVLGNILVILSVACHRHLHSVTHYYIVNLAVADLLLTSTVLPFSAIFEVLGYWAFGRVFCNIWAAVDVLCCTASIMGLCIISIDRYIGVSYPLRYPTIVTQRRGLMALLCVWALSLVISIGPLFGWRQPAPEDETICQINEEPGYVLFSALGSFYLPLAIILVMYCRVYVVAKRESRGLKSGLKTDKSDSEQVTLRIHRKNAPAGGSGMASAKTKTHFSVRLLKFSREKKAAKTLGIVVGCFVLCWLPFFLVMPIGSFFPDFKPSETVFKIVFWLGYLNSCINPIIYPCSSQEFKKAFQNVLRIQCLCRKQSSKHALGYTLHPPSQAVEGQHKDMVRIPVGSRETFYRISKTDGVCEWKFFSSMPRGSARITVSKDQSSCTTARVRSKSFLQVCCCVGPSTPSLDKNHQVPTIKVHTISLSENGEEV
Experimental: as §2, §1

[17] = target: T6, cholecystokinin A receptor (Homo sapiens, UniProt P32238); assay: SafetyScreen44 radioligand binding; conditions: agonist radioligand, read-out: % Inh (% inhibition of control specific binding)
T6 construct: purchased Eurofins Cerep (SafetyScreen44)
T6 sequence (P32238 whole entry): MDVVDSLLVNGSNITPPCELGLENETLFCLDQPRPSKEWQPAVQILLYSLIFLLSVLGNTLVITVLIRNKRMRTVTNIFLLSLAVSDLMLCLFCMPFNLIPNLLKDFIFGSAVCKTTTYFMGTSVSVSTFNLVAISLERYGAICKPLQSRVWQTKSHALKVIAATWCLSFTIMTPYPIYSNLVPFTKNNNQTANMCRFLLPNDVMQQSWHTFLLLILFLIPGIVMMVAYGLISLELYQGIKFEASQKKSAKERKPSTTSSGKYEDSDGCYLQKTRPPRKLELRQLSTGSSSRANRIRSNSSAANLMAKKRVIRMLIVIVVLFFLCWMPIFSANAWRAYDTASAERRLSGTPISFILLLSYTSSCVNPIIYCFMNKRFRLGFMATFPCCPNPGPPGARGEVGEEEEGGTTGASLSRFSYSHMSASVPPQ
Experimental: as §2, §1

[18] = target: hERG (Homo sapiens, UniProt Q12809); assay: hERG tail current, manual patch-clamp in hERG-HEK-293 transfected cells; type: cell-based
Chain of hERG (Q12809 whole entry): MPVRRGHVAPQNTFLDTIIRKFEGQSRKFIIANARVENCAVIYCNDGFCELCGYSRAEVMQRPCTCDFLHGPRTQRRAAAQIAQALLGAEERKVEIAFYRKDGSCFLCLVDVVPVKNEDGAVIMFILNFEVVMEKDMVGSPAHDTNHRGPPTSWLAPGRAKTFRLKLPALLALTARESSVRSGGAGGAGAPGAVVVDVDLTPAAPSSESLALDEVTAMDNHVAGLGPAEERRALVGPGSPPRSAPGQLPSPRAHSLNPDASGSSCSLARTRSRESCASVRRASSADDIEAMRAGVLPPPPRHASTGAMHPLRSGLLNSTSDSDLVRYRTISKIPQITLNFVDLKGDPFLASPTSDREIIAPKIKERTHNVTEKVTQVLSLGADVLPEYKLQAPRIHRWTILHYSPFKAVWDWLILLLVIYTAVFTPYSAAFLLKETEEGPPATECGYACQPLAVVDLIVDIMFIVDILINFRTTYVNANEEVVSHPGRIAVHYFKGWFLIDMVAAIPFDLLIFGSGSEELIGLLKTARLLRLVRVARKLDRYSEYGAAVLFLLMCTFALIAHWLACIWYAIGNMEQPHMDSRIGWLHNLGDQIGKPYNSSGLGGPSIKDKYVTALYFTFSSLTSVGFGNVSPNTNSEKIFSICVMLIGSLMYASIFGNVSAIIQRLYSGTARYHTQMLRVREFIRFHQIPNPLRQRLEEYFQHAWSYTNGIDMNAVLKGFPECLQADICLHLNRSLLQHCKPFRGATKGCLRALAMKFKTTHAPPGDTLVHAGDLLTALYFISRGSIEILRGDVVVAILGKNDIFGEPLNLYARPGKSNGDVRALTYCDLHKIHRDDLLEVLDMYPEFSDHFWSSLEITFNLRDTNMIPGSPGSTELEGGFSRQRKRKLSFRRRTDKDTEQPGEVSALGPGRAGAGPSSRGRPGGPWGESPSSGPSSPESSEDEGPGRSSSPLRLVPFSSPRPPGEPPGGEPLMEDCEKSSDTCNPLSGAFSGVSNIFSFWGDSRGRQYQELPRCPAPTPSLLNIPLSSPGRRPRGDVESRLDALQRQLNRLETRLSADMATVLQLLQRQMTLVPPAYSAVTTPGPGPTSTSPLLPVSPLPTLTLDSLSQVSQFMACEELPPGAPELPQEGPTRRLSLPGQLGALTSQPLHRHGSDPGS
Experimental: The dose-dependent effect of CPL500036 (10^–7 M–10^–5 M) on hERG current was conducted at Centre De Recherches Biologiques (CERB; Baugy, France) using the whole hERG-HEK-293 transfected cell system and manual patch-clamp method. […] Cells were clamped to −80 mV, depolarized to 0 mV for 5 s (to allow activation of hERG current) and repolarized to −50 mV for 5 s (to allow hERG tail current to deactivate). This experimental procedure was repeated at a frequency of 0.06 Hz. Currents were filtered at 1 kHz and acquired at a frequency of 2 kHz. The amplitude of hERG tail current was measured during the repolarizing pulse from 0 mV to −50 mV. […] Currents were measured before and after exposure to CPL500036.

[19] = With metabolic activation (+S9 mix), 2AA 2µg/plate
[20] = Without metabolic activation (-S9 mix), SAZ 2µg/plate
[21] = Without metabolic activation (-S9 mix), MMS 2µg/plate

## Cc1ncc(C)n2nc(-c3ccn4cc(-c5ccccc5)nc4n3)nc12 [CPL500036, 7-[5,8-Dimethyl-(1,2,4)triazolo (1,5-a)pyrazin-2-yl]-2-phenylimidazo (1,2-a) pyrimidine]
[1]
  dose showing therapeutic activity: 0.1 mg/kg
[2]; [19]
  Mutation rate: 0.6
  Revertants Mean±SD: 8.3±5.13
[2]; [20]
  Mutation rate: 1.13
  Revertants Mean±SD: 12.0±5.57
[3]
  IC50: 9.2 µM
[3]; agonistic mode, in presence of methoctramine, CHO cells, cAMP
  agonist-like behavior: didn’t trigger any agonist-like behavior
[4]; [19]
  Mutation rate: 1.76
  Revertants Mean±SD: 42.3±2.89
[4]; [21]
  Mutation rate: 1.12
  Revertants Mean±SD: 22.3±2.08
[5]
  inhibition at 1 µM: -91.2%
[6]
  bioavailability in human: bioavailable in human
  safety and tolerability in human: generally safe and well tolerated with no serious adverse effects
[7]
  effect on the glucose level, glucose-tolerance test: has no effect on the glucose level
[8]
  dose showing therapeutic activity: 0.1 mg/kg
[9]
  % Inh (% inhibition of control specific binding): 4.4%
[10]
  % Inh (% inhibition of control specific binding): −7.2%
[11]
  % Inh (% inhibition of control specific binding): −10.2%
[12]
  % Inh (% inhibition of control specific binding): −27.7%
[13]
  % Inh (% inhibition of control specific binding): −1.3%
[14]
  inhibition at 1 µM: 1.8%
[15]
  inhibition at 1 µM: 5.3%
[16]
  inhibition at 1 µM: 1.8%
[17]
  inhibition at 1 µM: -8.2%
[18]
  hERG IC25 relative to the IC50 for PDE10A: > 3,000 times
[18]; hERG-HEK-293 transfected cells, manual patch-clamp, mean ± SD, n = 3
  IC25, inhibition of hERG tail current: 3.2 ± 1.6 µM
